14 compounds from patent US20210253528A1, “CHEMICAL COMPOUNDS” (GLAXOSMITHKLINE INTELLECTUAL PROPERTY DEVELOPMENT LIMITED, priority 2018, published 2021) can be followed below.

This test relates to ATF4 translation. The test is described as follows: ATF4 Cell Based Assay (ATF4 reporter assay, NanoLuc luciferase fused to ATF4 5'-UTR, thapsigargin-induced stress). Conditions: SH-SY5Y-ATF4-NanoLuc cells, 200 nM thapsigargin, overnight (typically 19 hours); average of a set of two or more experimental runs; read-out: average ATF4 pathway inhibitory activity IC50. The text has this: The ATF4 reporter assay measures the effect of thapsigargin-induced cellular stress on ATF4 expression. For this reporter assay, a stable cell line was created by transfecting SH-SY5Y cells with a plasmid containing the NanoLuc® luciferase gene fused to the 5′-UTR of ATF4, under the control of the CMV promoter. The ATF4 5′-UTR contains two open reading frames which mediate the cellular stress-dependent translation of the reporter gene. Clones stably expressing the reporter construct were isolated and selected based on the luminescence response to thapsigargin and inhibition of this signal by test compounds. Briefly, SH-SY5Y-ATF4-NanoLuc cells were challenged with thapsigargin to determine the stress effect with or without test compounds. Cells were propagated in DMEM/F12 growth media containing 10% FBS (Invitrogen 10999-141) and 0.5 mg/mL geneticin (Corning 30-234-CR). Aliquots of cells were cryopreserved in dialyzed FBS containing 10% DMSO.
Test compounds were prepared in neat DMSO at a concentration of 10 mM. Assay plates were prepared by adding 250 nL of compound stock solution to test wells in a 384-well white tissue culture-treated plate (Greiner 781073). For inhibition curves, compounds were diluted using a three-fold serial dilution and tested at 11 concentrations (10 μM-0.17 nM).
Aliquots of frozen cells were thawed with a 37C water bath. The cells were washed using DMEM/F12 (1:1) (1×) (Gibco 11039-021). The cells were re-suspended in the DMEM/F12 and the suspension was counted. A final suspension of 7.5e5 cells/ml was prepared.
A volume of 20 uL of cell suspension was added to compound plates (15K cells/well). Cells were incubated for 1 hour at 37° C. A volume of 5 μL of 1 uM Thapsigargin solution was added to each well, resulting in a final concentration of 200 nM. Assay plates were then incubated at 37 C overnight, typically for 19 hours.
The measurement of luciferase produced by the ATF4 constructs was measured using Nano-Glo Luciferase Assay reagent, Promega N1150. (The components of the Promega kit are: Nano-Glo® Luciferase Assay Substrate, N113C, Nano-Glo® Luciferase Assay Buffer, N1128.) The buffer is brought to room temperature, and a solution of 50:1 buffer:substrate were prepared. The cell plates were equilibrated to room temperature. A volume of 20 microliters/well of the mixed Nano-Glo reagent were dispensed into assay and control wells. The plates were read on a Viewlux plate reader.
A general note: A reporter such as luciferase makes a cellular process visible.
In the case of `O=C(COc1ccc(F)c(F)c1)NC12CC(COC(=O)Nc3ccc(F)c(F)c3)(C1)C2` [Example 16, (3-(2-(3,4-difluorophenoxy)acetamido)bicyclo [1.1.1]pentan-1-yl)methyl (3,4-difluorophenyl) carbamate], the IC50 is 158 nM.
To `O=C(COc1ccc(Cl)c(F)c1)NC12CCC(COC(=O)Nc3ccc(Cl)c(F)c3)(C1)C2` [Example 26, (4-(2-(4-chloro-3-fluorophenoxy)acetamido)bicyclo[2.1.1]hexan-1-yl)methyl (4-chloro-3-fluorophenyl) carbamate] belongs 80 nM; to `O=C(COc1ccc(Cl)cc1)NC12CC(COC(=O)Nc3ccc(Cl)cc3)(C1)C2` [Example 1, (3-(2-(4-Chlorophenoxy)acetamido)bicyclo[1.1.1]pentan-1-yl)methyl (4-chlorophenyl)carbamate], 25 nM.
On to `O=C(COc1ccc(Cl)cc1)NC12CC(CNC(=O)Nc3ccc(Cl)c(Cl)c3)(C1)C2` [Example 22, 2-(4-chlorophenoxy)-N-(3-((3-(3,4-dichlorophenyl)ureido)methyl)bicyclo[1.1.1]pentan-1-yl)acetamide], for which the IC50 turned out to be 6 nM.
`O=C(COc1ccc(Cl)c(F)c1)NC12CC(COC(=O)Nc3ccc(Cl)cc3)(C1)C2` [Example 3, (3-(2-(4-chloro-3-fluorophenoxy)acetamido)bicyclo[1.1.1]pentan-1-yl)methyl (4-chlorophenyl)carbamate]: the IC50 amounted to 25 nM.
`O=C(COc1ccc(Cl)c(Cl)c1)NC12CC(COC(=O)Nc3ccc(Cl)cc3)(C1)C2` [Example 12, (3-(2-(3,4-dichlorophenoxy)acetamido)bicyclo [1.1.1]pentan-1-yl)methyl (4-chlorophenyl) carbamate]: the IC50 came to 32 nM.
Take `O=C(COc1ccc(Cl)c(F)c1)NC12CC(COC(=O)Nc3ccc(Cl)c(Cl)c3)(C1)C2` [Example 10, (3-(2-(4-chloro-3-fluorophenoxy)acetamido)bicyclo [1.1.1]pentan-1-yl)methyl (3,4-dichlorophenyl) carbamate]: the IC50 came to 25 nM.
`O=C(Nc1ccc(Cl)c(F)c1)OCC12CC(NC(=O)c3ccc4c(c3)OC(F)(F)O4)(C1)C2` [Example 19, (3-(2,2-difluorobenzo[d] [1,3]dioxole-5-carboxamido)bicyclo[1.1.1]pentan-1-yl)methyl (4-chloro-3-fluorophenyl) carbamate]: the IC50 amounted to 158 nM.
Consider `O=C(COc1ccc(Cl)c(C(F)(F)F)c1)NC12CC(COC(=O)Nc3ccc(Cl)c(F)c3)(C1)C2` [Example 8a, (3-(2-(4-chloro-3-(trifluoromethyl)phenoxy)acetamido)bicyclo[1.1.1]pentan-1-yl)methyl (4-chloro-3-fluorophenyl)carbamate], for which the IC50 worked out at 79 nM.
Take `O=C(COc1ccc(F)cc1)NC12CC(COC(=O)Nc3ccc(Cl)c(F)c3)(C1)C2` [Example 14, (3-(2-(4-fluorophenoxy)acetamido)bicyclo [1.1.1]pentan-1-yl)methyl (4-chloro-3-fluorophenyl) carbamate]: the IC50 amounted to 79 nM.
Turning to `O=C(COc1ccc(Cl)c(F)c1)NC12CC(CNC(=O)Nc3ccc(Cl)c(Cl)c3)(C1)C2` [Example 23, 2-(4-chloro-3-fluorophenoxy)-N-(3-((3-(3,4-dichlorophenyl)ureido)methyl)bicyclo[1.1.1]pentan-1-yl)acetamide], the IC50 turned out to be 8 nM.
To `O=C(CNc1ccc(Cl)cc1)NC12CC(COC(=O)Nc3ccc(Cl)c(F)c3)(C1)C2` [Example 18, (3-(2-((4-chlorophenyl)amino)acetamido)bicyclo [1.1.1]pentan-1-yl) methyl (4-chloro-3-fluorophenyl carbamate] belongs 1260 nM; to `O=C(COc1ccc(Cl)cc1)NC12CC(CNC(=O)Nc3ccc(Cl)cc3)(C1)C2` [Example 4, 2-(4-Chlorophenoxy)-N-(3-((3-(4-chlorophenyl)ureido)methyl)bicyclo[1.1.1]pentan-1-yl)acetamide], 10 nM; to `O=C(COc1ccc(Cl)cc1)NC12CC(CNC(=S)Nc3ccc(Cl)cc3)(C1)C2` [Example 6a, 2-(4-chlorophenoxy)-N-(3-((3-(4-chlorophenyl)thioureido)methyl)bicyclo[1.1.1]pentan-1-yl)acetamide], 126 nM.

As a reminder, the IC50 is the concentration at which inhibition is half-maximal.
